Measurements published in ChEMBL document CHEMBL1145591, “Synthesis of new UV-B light absorbents: (Acetylphenyl)glycosides with antioxidant activities” (Bioorg Med Chem Lett, 2008).

Test: Antioxidant activity after 1 hr by cytochrome-c reduction assay
Assay type: functional
Parameters: scale not given: the % may be the effect or the level left
Work on `CC(=O)c1cccc(O[C@H]2O[C@H](CO)[C@@H](O)[C@H](O)[C@@H]2O)c1` yielded an Activity of 66.9%. `CC(=O)c1cccc(O[C@@H]2O[C@H](CO)[C@@H](O)[C@H](O)[C@H]2O)c1` showed an Activity of 51.7%. In the case of `CC(=O)c1cccc(O)c1`, the Activity is reported as 0%. For `CC(=O)c1cccc(O[C@@H]2O[C@H](CO)[C@@H](O)[C@H](O)[C@@H]2O)c1`, the Activity was 71.5%.
